From patent publication US8173711B2, “Agent for relief or prevention of xerostomia” (Kaneka Corporation, priority 2007, dated 2012)
Marks after values point to notes of the source that are not given here.

Key:
[1] = system: xerostomia (dry mouth) outpatients; experiment: Saxon test, amount of secreted saliva, coenzyme Q10 capsule intake in patients with xerostomia; assay type: in vivo, human; details: for Amount of secreted saliva, Increased amount: difference after minus before one-month intake; for Amount of secreted saliva, After intake / Amount of secreted saliva, Before intake: group average; for Amount of secreted saliva, After intake: after one 100 mg capsule every day for one month; for Amount of secreted saliva, Before intake: before intake of one 100 mg capsule every day for one month
Experimental: A test subject chews a piece of gauze for 2 minutes. The weight of the gauze piece has been measured in advance. After the 2-minute chewing, the weight of the gauze is measured. An amount of secreted saliva is calculated as a difference between the weights of the gauze piece before and after the 2-minute chewing.
In total 23 xerostomia (dry mouth) outpatients (23 females including 21 Sjogren syndrome patients) were divided into three groups. To one group consisting of 9 patients, one oxidized coenzyme Q10-containing capsule having the composition illustrated in Table 1 (Test food 1, 240 mg per capsule) was administered every day for one month. To another group consisting of another 9 patients, one reduced coenzyme Q10-containing capsule having the composition shown in Table 1 (Test food 2, 240 mg per capsule) was administered every day for one month. The amount of secreted saliva was measured for each group before and after the intake. To the other group consisting of remaining 5 patients, one placebo capsule (Control food, 240 mg per capsule) was administered every day for one month. The amount of secreted saliva was similarly measured before and after the intake.
(§1) The amount of secreted saliva was measured by Saxon test. Namely, a test subject chewed a piece of gauze for 2 minutes. The weight of the gauze piece had been measured in advance. After the 2-minute chewing, the weight of the gauze piece was measured. The amount of secreted saliva was calculated as a difference between the weights of the gauze piece before and after the 2-minute chewing. In the present example, those whose amount of secreted saliva measured by Saxon test was 2.0 g/2 min. or less were determined as xerostomia patients, and those whose amount of secreted saliva was more than that were determined as healthy persons. Tables 2 and 3 illustrate the average values of all subjects of each group.

healthy persons = experiment: Saxon test, amount of secreted saliva, coenzyme Q10 capsule intake in healthy persons; assay type: in vivo, human; details: for Amount of secreted saliva, Increased amount: difference after minus before one-month intake; for Amount of secreted saliva, After intake / Amount of secreted saliva, Before intake: group average; for Amount of secreted saliva, After intake: after one 100 mg capsule every day for one month; for Amount of secreted saliva, Before intake: before intake of one 100 mg capsule every day for one month; for Significant or excessive increase of secreted saliva before versus after intake: one capsule every day for one month
Experimental: as §1
In total, 57 healthy persons (12 males, 45 females) were collected as volunteers. One oxidized coenzyme Q10-containing capsule having the composition illustrated in Table 1 (Test food 1, 240 mg per capsule) was administered every day for one month to a group consisting of 22 healthy persons (5 males, 17 females), and one reduced coenzyme Q10-containing capsule having the composition illustrated in Table 1 (Test food 2, 240 mg per capsule) was administered every day for one month to another group consisting of 22 healthy persons (5 males, 17 females). The amount of secreted saliva was measured for each group before and after the intake by the same procedure as that in Example 1. To remaining 13 healthy persons (2 males, 11 females), one placebo capsule (Control food, 240 mg per capsule) was administered every day for one month. The amount of secreted saliva was measured before and after the intake.

rats = details: 52 consecutive weeks, 1.2 g/kg/day; cited from earlier work
[2] = system: Parkinson's disease model mice; details: Non-Patent Document 2; cited from earlier work

| Molecule | Amount of secreted saliva, Increased amount [1] [g/2 min.] | Amount of secreted saliva, After intake [1] | Amount of secreted saliva, After intake ([1]; listed as oxidized coenzyme Q10) [g/2 min.] | Amount of secreted saliva, Before intake [1] [g/2 min.] | Amount of secreted saliva, Increased amount (healthy persons) [g/2 min.] | Amount of secreted saliva, After intake (healthy persons) [g/2 min.] | Amount of secreted saliva, Before intake (healthy persons) [g/2 min.] | Significant or excessive increase of secreted saliva before versus after intake (healthy persons) | Amount of secreted saliva, Increased amount ([1]; listed as reduced coenzyme Q10) [g/2 min.] | Amount of secreted saliva, After intake ([1]; listed as reduced coenzyme Q10) [g/2 min.] | Comparison of salivary secretion-increasing effect ([1]; reduced versus oxidized coenzyme Q10 capsule) | Toxicity (rats) | Effect on conditions of Parkinson's disease model mice [2] |
| --- | --- | --- | --- | --- | --- | --- | --- | --- | --- | --- | --- | --- | --- |
| COC1=C(OC)C(=O)C(C/C=C(\C)CC/C=C(\C)CC/C=C(\C)CC/C=C(\C)CC/C=C(\C)CC/C=C(\C)CC/C=C(\C)CC/C=C(\C)CC/C=C(\C)CCC=C(C)C)=C(C)C1=O [Oxidized coenzyme Q10] | 0.59 | 1.28* g/2 min. | 1.28 | 0.69 | 0.43 | 6.16 | 5.73 | None of the oxidized coenzyme Q10 capsule administration group, the reduced coenzyme Q10 capsule administration group and the placebo capsule administration group showed a significant or excessive increase | – | – | – | – | – |
| COc1c(O)c(C)c(C/C=C(\C)CC/C=C(\C)CC/C=C(\C)CC/C=C(\C)CC/C=C(\C)CC/C=C(\C)CC/C=C(\C)CC/C=C(\C)CC/C=C(\C)CCC=C(C)C)c(O)c1OC [Reduced coenzyme Q10] | 0.70 | 1.52* g/2 min. | – | 0.82 | 0.10 | 3.54 | 3.44 | None of the oxidized coenzyme Q10 capsule administration group, the reduced coenzyme Q10 capsule administration group and the placebo capsule administration group showed a significant or excessive increase | 0.7 | 1.52 | higher effects than oxidized coenzyme Q10 | – | – |
| ubiquinone [Oxidized coenzyme Q] | – | – | – | – | – | – | – | – | – | – | – | no evidence of toxicity | effects to improve conditions |
